Columns and labels:
Type in all cases: functional
Homo sapiens [1] = organism: Homo sapiens; assay: Inhibition of calcium ionophore (A-23187) stimulated leukotriene B4 (LTB4) formation in human neutrophils at 390 nM
Rattus norvegicus [2] = assay: Inhibition of leukotriene production in an ionophore-induced rat pleurisy model at 3 mg/kg; conditions: for inhibition in vivo at 3 mg/kg: Rattus norvegicus
Rattus norvegicus [3] = assay: In vivo inhibition evaluation of leukotriene inhibition in an ionophore-induced rat pleurisy at 3 mg/kg
Homo sapiens [4] = organism: Homo sapiens; assay: Inhibition of calcium ionophore (A-23187) -stimulated leukotriene B4 (LTB4) formation in human neutrophils at 390 nM

| Structure (SMILES) | IC50 (Homo sapiens [1]; Homo sapiens) [nM] | inhibition in vivo at 3 mg/kg (Rattus norvegicus [2]) [%] | further results |
| --- | --- | --- | --- |
| O=C(O)C(c1ccc(OCc2ccc3ccccc3n2)cc1)c1ccc(OCc2ccc3ccccc3n2)cc1 | 60 | – | – |
| CC(CCCO/N=C/C(=O)O)(c1ccc(OCc2ccc3ccccc3n2)cc1)c1ccc(OCc2ccc3ccccc3n2)cc1 | 30 | 0 | – |
| O=C(O)C=C(c1ccc(OCc2ccc3ccccc3n2)cc1)c1ccc(OCc2ccc3ccccc3n2)cc1 | 50 | 11 | – |
| CC(C)(CO/N=C/C(=O)O)C(c1ccc(OCc2ccc3ccccc3n2)cc1)c1ccc(OCc2ccc3ccccc3n2)cc1 | 34 | 27 | – |
| CC(CCCO)(c1ccc(OCc2ccc3ccccc3n2)cc1)c1ccc(OCc2ccc3ccccc3n2)cc1 | 130 | 7 | – |
| O=C(O)CON=C1CCC(c2ccc(OCc3ccc4ccccc4n3)cc2)(c2ccc(OCc3ccc4ccccc4n3)cc2)CC1 | 65 | 0 | – |
| O=C([O-])C1CCC(c2ccc(OCc3ccc4ccccc4n3)cc2)(c2ccc(OCc3ccc4ccccc4n3)cc2)CC1.[Na+] | 47 | – | Inhibition (Rattus norvegicus [2]): 18% |
| C/C(CCC(=O)O)=N\OC(c1ccc(OCc2ccc3ccccc3n2)cc1)c1ccc(OCc2ccc3ccccc3n2)cc1 | 50 | – | ED50 (Rattus norvegicus [3]): 1 mg/kg |
| CC(CCC(=O)[O-])(c1ccc(OCc2ccc3ccccc3n2)cc1)c1ccc(OCc2ccc3ccccc3n2)cc1.[Na+] | – | – | IC50 (Homo sapiens [1]): 20 nM; ED50 (Rattus norvegicus [3]): 3 mg/kg |
| O=C(O)C1CCC(c2ccc(OCc3ccc4ccccc4n3)cc2)(c2ccc(OCc3ccc4ccccc4n3)cc2)CC1 | – | – | IC50 (Homo sapiens [1]): 60 nM; Inhibition (Rattus norvegicus [2]): 0% |
| CC(O)(c1ccc(OCc2ccc3ccccc3n2)cc1)c1ccc(OCc2ccc3ccccc3n2)cc1 | 50 | 0 | – |
| CC(CCC(=O)O)(c1ccc(OCc2cnc3ccccc3n2)cc1)c1ccc(OCc2cnc3ccccc3n2)cc1 | – | 14 | inhibition at 0.39 µM (Homo sapiens [4]; Homo sapiens): 47% |
| CC(SCC(=O)O)(c1ccc(OCc2ccc3ccccc3n2)cc1)c1ccc(OCc2ccc3ccccc3n2)cc1 | – | 0 | inhibition at 0.39 µM (Homo sapiens [4]; Homo sapiens): 62% |
| CC(CCC(=O)O)(c1ccc(OCc2ccc3ccccc3n2)cc1)c1ccc(OCc2nc3ccccc3s2)cc1 (stereo not drawn) [listing 1 of 2 here] | 52 | – | – |
| C/C(=N\OC(c1ccc(OCc2ccc3ccccc3n2)cc1)c1ccc(OCc2ccc3ccccc3n2)cc1)C(=O)O | 21 | – | ED50 (Rattus norvegicus [3]): 1.5 mg/kg |
| O=C(O)CON=C(c1ccc(OCc2ccc3ccccc3n2)cc1)c1ccc(OCc2ccc3ccccc3n2)cc1 | 32 | 0 | – |
| CC(CC(c1ccc(OCc2ccc3ccccc3n2)cc1)c1ccc(OCc2ccc3ccccc3n2)cc1)C(=O)O (stereo not drawn) [listing 1 of 2 here] | – | – | inhibition at 0.39 µM (Homo sapiens [4]; Homo sapiens): 82%; Inhibition (Rattus norvegicus [2]): 43% |
| O=C(O)CO/N=C/C=C(c1ccc(OCc2ccc3ccccc3n2)cc1)c1ccc(OCc2ccc3ccccc3n2)cc1 | 26 | 10 | – |
| C/C(=N\OCC=C(c1ccc(OCc2ccc3ccccc3n2)cc1)c1ccc(OCc2ccc3ccccc3n2)cc1)C(=O)O | 20 | 42 | – |
| O=C(O)/C=N/OCC=C(c1ccc(OCc2ccc3ccccc3n2)cc1)c1ccc(OCc2ccc3ccccc3n2)cc1 | – | 17 | inhibition at 0.39 µM (Homo sapiens [4]; Homo sapiens): 100% |
| C/C(=N\OCCC#CC(O)(c1ccc(OCc2ccc3ccccc3n2)cc1)c1ccc(OCc2ccc3ccccc3n2)cc1)C(=O)O | 59 | 40 | – |

| Structure (SMILES) | IC50 (Homo sapiens [1]; Homo sapiens) [nM] | inhibition in vivo at 3 mg/kg (Rattus norvegicus [2]) [%] | further results |
| --- | --- | --- | --- |
| CC(CC(c1ccc(OCc2ccc3ccccc3n2)cc1)c1ccc(OCc2ccc3ccccc3n2)cc1)C(=O)O (stereo not drawn) [listing 2 of 2 here] | 46 | 53 | – |
| O=C(O)CO/N=C/C(c1ccc(OCc2ccc3ccccc3n2)cc1)c1ccc(OCc2ccc3ccccc3n2)cc1 | 35 | – | – |
| CCOC(=O)C1CCC(c2ccc(OCc3ccc4ccccc4n3)cc2)(c2ccc(OCc3ccc4ccccc4n3)cc2)CC1 | 1900 | – | – |
| CC(CCC(=O)O)(c1ccc(OCc2ccc3ccccc3c2)cc1)c1ccc(OCc2ccc3ccccc3c2)cc1 | 830 | – | – |
| CC(CCC(=O)O)(c1ccc(OCc2ccc3cc(F)ccc3n2)cc1)c1ccc(OCc2ccc3cc(F)ccc3n2)cc1 | 40 | 42 | – |
| CC(CC(=O)O)(c1ccc(OCc2ccc3ccccc3n2)cc1)c1ccc(OCc2ccc3ccccc3n2)cc1 | 170 | 0 | – |
| O=C(O)C#CC(O)(c1ccc(OCc2ccc3ccccc3n2)cc1)c1ccc(OCc2ccc3ccccc3n2)cc1 | – | 48 | inhibition at 0.39 µM (Homo sapiens [4]; Homo sapiens): 98% |
| OC(c1ccc(OCc2ccc3ccccc3n2)cc1)c1ccc(OCc2ccc3ccccc3n2)cc1 | 170 | 2 | – |
| CC(CC/C=N\OCC(=O)O)(c1ccc(OCc2ccc3ccccc3n2)cc1)c1ccc(OCc2ccc3ccccc3n2)cc1 | 40 | 0 | – |
| CC(C)(/C=N/OCC(=O)O)C(c1ccc(OCc2ccc3ccccc3n2)cc1)c1ccc(OCc2ccc3ccccc3n2)cc1 | 28 | 42 | – |
| CC(CCC(=O)O)(c1ccc(OCc2ccc3ccccc3n2)cc1)c1ccc(OCc2ccc3ccccc3n2)cc1 | 23 | – | ED50 (Rattus norvegicus [3]): 1.5 mg/kg |
| O=C(O)CC(c1ccc(OCc2ccc3ccccc3n2)cc1)c1ccc(OCc2ccc3ccccc3n2)cc1 | 60 | 17 | – |
| Cn1c(COc2ccc(C(C)(CCC(=O)O)c3ccc(OCc4ccc5ccccc5n4)cc3)cc2)nc2ccccc21 (stereo not drawn) | – | – | IC50 (Homo sapiens [1]): 80 nM; Inhibition (Rattus norvegicus [2]): 0% |
| CC(CCC(=O)O)(c1ccc(OCc2ccc3ccccc3c2)cc1)c1ccc(OCc2ccc3ccccc3n2)cc1 (stereo not drawn) | – | 55 | inhibition at 0.39 µM (Homo sapiens [4]; Homo sapiens): 93% |
| CC(CCC(=O)O)(c1ccc(OCc2ccccn2)cc1)c1ccc(OCc2ccccn2)cc1 | – | – | inhibition at 0.39 µM (Homo sapiens [4]): 53%; inhibition in vivo at 3 mg/kg (Rattus norvegicus [3]): 0% |
| O=C(O)CSC(c1ccc(OCc2ccc3ccccc3n2)cc1)(c1ccc(OCc2ccc3ccccc3n2)cc1)c1cccs1 [listing 1 of 2 here] | 11 | – | ED50 (Rattus norvegicus [3]): 1.1 mg/kg |
| C/C(=N\OCCC(C)(c1ccc(OCc2ccc3ccccc3n2)cc1)c1ccc(OCc2ccc3ccccc3n2)cc1)C(=O)O | – | 23 | inhibition at 0.39 µM (Homo sapiens [4]; Homo sapiens): 54% |
| O=C(O)/C=N/OC(c1ccc(OCc2ccc3ccccc3n2)cc1)c1ccc(OCc2ccc3ccccc3n2)cc1 | 68 | 37 | – |
| CC(/C=C/C(=O)O)=N\OC(c1ccc(OCc2ccc3ccccc3n2)cc1)c1ccc(OCc2ccc3ccccc3n2)cc1 | 30 | 27 | – |
| C/C(=N\OC1CCC(c2ccc(OCc3ccc4ccccc4n3)cc2)(c2ccc(OCc3ccc4ccccc4n3)cc2)CC1)C(=O)O | 37 | 48 | – |
| CC(C)(C(=O)O)C(c1ccc(OCc2ccc3ccccc3n2)cc1)c1ccc(OCc2ccc3ccccc3n2)cc1 | 100 | 50 | – |

| Structure (SMILES) | IC50 (Homo sapiens [1]; Homo sapiens) [nM] | inhibition in vivo at 3 mg/kg (Rattus norvegicus [2]) [%] | further results |
| --- | --- | --- | --- |
| CC(CCCC(=O)O)(c1ccc(OCc2ccc3ccccc3n2)cc1)c1ccc(OCc2ccc3ccccc3n2)cc1 [listing 1 of 2 here] | – | – | IC50 (Homo sapiens [1]): 43 nM; Inhibition (Rattus norvegicus [2]): 32% |
| O=C(O)CSC(c1ccc(OCc2ccc3ccccc3n2)cc1)(c1ccc(OCc2ccc3ccccc3n2)cc1)c1cccs1 [listing 2 of 2 here] | – | 80 | – |
| Cn1c(COc2ccc(C(C)(CCC(=O)[O-])c3ccc(OCc4nc5ccccc5n4C)cc3)cc2)nc2ccccc21.[Na+] | – | – | Inhibition (Homo sapiens [4]): 59%; Inhibition (Rattus norvegicus [2]): 29% |
| O=C(O)CSC(c1ccc(OCc2ccc3ccccc3n2)cc1)c1ccc(OCc2ccc3ccccc3n2)cc1 | 58 | – | – |
| CC(C(=O)[O-])(c1ccc(OCc2ccc3ccccc3n2)cc1)c1ccc(OCc2ccc3ccccc3n2)cc1.[Na+] | – | – | IC50 (Homo sapiens [1]): 37 nM; Inhibition (Rattus norvegicus [2]): 46% |
| Cn1c(COc2ccc(C(C)(CCC(=O)O)c3ccc(OCc4nc5ccccc5n4C)cc3)cc2)nc2ccccc21 | – | – | Inhibition (Homo sapiens [4]): 27%; Inhibition (Rattus norvegicus [2]): 0% |
| CC(CCC(=O)[O-])(c1ccc(OCc2ccc3ccccc3c2)cc1)c1ccc(OCc2ccc3ccccc3n2)cc1.[Na+] (stereo not drawn) | – | – | Inhibition (Rattus norvegicus [2]): 40% |
| Cn1c(COc2ccc(C(C)(CCC(=O)[O-])c3ccc(OCc4ccc5ccccc5n4)cc3)cc2)nc2ccccc21.[Na+] (stereo not drawn) | 90 | – | Inhibition (Rattus norvegicus [2]): 10% |
| CC(CCCC(=O)O)(c1ccc(OCc2ccc3ccccc3n2)cc1)c1ccc(OCc2ccc3ccccc3n2)cc1 [listing 2 of 2 here] | 32 | 35 | – |
| O=C(O)CSC(c1ccccc1)(c1ccc(OCc2ccc3ccccc3n2)cc1)c1ccc(OCc2ccc3ccccc3n2)cc1 | 87 | – | – |
| CC(CCC(=O)O)(c1ccc(OCc2nc3ccccc3s2)cc1)c1ccc(OCc2nc3ccccc3s2)cc1 [listing 1 of 2 here] | – | – | IC50 (Homo sapiens [1]): 50 nM |
| CC(CCC(=O)O)(c1ccc(OCc2nc3ccccc3s2)cc1)c1ccc(OCc2nc3ccccc3s2)cc1 [listing 2 of 2 here] | 46 | 0 | – |
| O=C([O-])CC(c1ccc(OCc2ccc3ccccc3n2)cc1)c1ccc(OCc2ccc3ccccc3n2)cc1.[Na+] | – | – | IC50 (Homo sapiens [1]): 70 nM; Inhibition (Rattus norvegicus [2]): 30% |
| CC(C(=O)O)(c1ccc(OCc2ccc3ccccc3n2)cc1)c1ccc(OCc2ccc3ccccc3n2)cc1 | 32 | – | Inhibition (Rattus norvegicus [2]): 25% |
| O=C([O-])C=C(c1ccc(OCc2ccc3ccccc3n2)cc1)c1ccc(OCc2ccc3ccccc3n2)cc1.[Na+] | – | – | IC50 (Homo sapiens [1]): 40 nM; Inhibition (Rattus norvegicus [2]): 19% |
| OC(c1ccc(OCc2ccc3ccccc3n2)cc1)(c1ccc(OCc2ccc3ccccc3n2)cc1)c1cccs1 | – | 0 | inhibition at 0.39 µM (Homo sapiens [4]; Homo sapiens): 87% |
| CC(CCC(=O)O)(c1ccc(OCc2ccc3ccccc3n2)cc1)c1ccc(OCc2nc3ccccc3s2)cc1 (stereo not drawn) [listing 2 of 2 here] | – | 35 | inhibition at 0.39 µM (Homo sapiens [4]; Homo sapiens): 95% |
| C/C(=N\OCCCC(C)(c1ccc(OCc2ccc3ccccc3n2)cc1)c1ccc(OCc2ccc3ccccc3n2)cc1)C(=O)O | 35 | 4 | – |
| OCC1CCC(c2ccc(OCc3ccc4ccccc4n3)cc2)(c2ccc(OCc3ccc4ccccc4n3)cc2)CC1 | – | – | inhibition at 0.39 µM (Homo sapiens [4]; Homo sapiens): 28% |
| O=C(O)/C=N/OC1CCC(c2ccc(OCc3ccc4ccccc4n3)cc2)(c2ccc(OCc3ccc4ccccc4n3)cc2)CC1 | – | 15 | inhibition at 0.39 µM (Homo sapiens [4]; Homo sapiens): 54% |
